Laboratory results as given in patent publication US20030176368A1, “Synthesis of epothilones, intermediates thereto and analogues thereof” (priority 2001, published 2003).
Like-named read-outs stand apart in the source and are kept apart here.

Assays:
[1] = tested on: CCRF-CEM; test: XTT cytotoxicity assay, CCRF-CEM cells; format: cell-based, human; conditions: for activity in CCRF-CEM cell lines: Example 12, in words
Procedure: (§1) XTT assay following 72 h inhibition. CCRF-CEM is a human T-cell acute lymphoblastic leukemia cell line. The CCRF-CEM/VBL100, CCRF-CEM/VM1, and CCRF-CEM/Taxol cell lines all overexpress P-glycoprotein and display a multidrug resistance phenotype to MDR-associated oncolytics. (Chou et al. Proc. Natl. Acad. Sci. USA 98:8113, 2001; incorporated herein by reference).
(§2) A typical experiment invovles culturing cells (e.g., CCRF-CEM) at an initial density of 2-5×10^4 cells per ml. They are maintained in a 5% CO2-humidified atmosphere at 37° C. in RPMI medium 1640 (GIBCO/BRL) containing penicillin (100 units/ml), streptomycin (100 μg/ml) (GIBCO/BRL), and 5% heat-inactivated fetal bovine serum. For cells that were grown in suspension (such as CCRF-CEM and its sublines), cytotoxicitiy is measured by using the 2,-3-bis(2-methoxy-4-nitro-5-sulfophenyl)-5 carboxanilide)-2H terazodium hydroxide (XTT)-microculture tetrazonium method in duplicate in 96-well microtiter plates. For both methods, the absorbance of each well is measured with a microplate reader (EL-340, Bio-Tek, Burlington, Vt.). Each run entails six or seven concentrations of the tested drugs. Dose-effect relationship data are analyzed with the median-effect plot.
(§3) The CCRF-CEM human T cells, acute lymphoblastic leukemic cells, its teniposide-resistant subline (CCRF-CEM/VM1) and vinblastine-resistant subline (CCRF-CEM/VBL100) are obtained from W. T. Beck (University of Illinois, Chicago, Ill.).

[2] = tested on: CCRF-CEM/VM1; test: XTT cytotoxicity assay, teniposide-resistant CCRF-CEM/VM1 cells; format: cell-based, human
Procedure: as §1, §2, §3

[3] = tested on: tubulin; test: Tubulin binding: formation of microtubules in the presence of the compounds; format: biochemical
From the text: Indeed, the microtubule stabilizing ability closely parallels the observed cytotoxicity data.

[4] = tested on: CCRF-CEM/Taxol; test: XTT cytotoxicity assay, taxol-resistant CCRF-CEM/Taxol cells; format: cell-based, human; conditions: for activity in CCRF-CEM cell lines resistant to Taxol: Example 12, in words
Procedure: as §1, §2

[5] = tested on: CCRF-CEM/VBL100; test: XTT cytotoxicity assay, vinblastine-resistant CCRF-CEM/VBL100 cells; format: cell-based, human
Procedure: as §1, §2, §3

[6] = Stability on exposure to murine plasma; format: in vitro ADME; conditions: compared with the parent compound
From the text: See Chou et al. Proc. Natl. Acad. Sci. USA 98:8113, 2001, incorporated herein by reference, for details.
However, the apparently disappointing murine in vivo results should be viewed in the context of reports that dEpoB itself evidenced a degree of bioinstability in murine plasma; yet had much longer plasma half-lives in higher organisms, including humans (Chou et al. J. Proc. Natl. Acad. Sci. USA 98:8113, 2001; incorporated herein by reference). The observed discrepancy in efficacy between mice and other mammals, including humans, has been ascribed to higher esterase levels in rodents.

[7] = Example 6 table, XTT assay following 72 h inhibition, read-out: CCRF-CEM (IC50 (μM))
[8] = XTT assay following 72 h inhibition, read-out: In vitro Cytotoxicities (IC50) CCRF-CEM
[9] = XTT assay following 72 h inhibition, read-out: In vitro Cytotoxicities (IC50) CCRF-CEM/VM1
[10] = XTT assay following 72 h inhibition, read-out: In vitro Cytotoxicities (IC50) CCRF-CEM/Taxol
[11] = Example 6 table, XTT assay following 72 h inhibition, read-out: CCRF-CEM/VBL (IC50 (μM))
[12] = XTT assay following 72 h inhibition, read-out: In vitro Cytotoxicities (IC50) CCRF-CEM/VBL100
[13] = Homo sapiens, CCRF-CEM, Example 11 Table 2, XTT assay following 72-h inhibition, read-out: In Vitro Cytotoxicities (IC50) CCRF-CEM
[14] = Homo sapiens, CCRF-CEM, Example 11 Table 2, XTT assay following 72-h inhibition, read-out: In Vitro Cytotoxicities (IC50) CCRF-CEM/VMI
[15] = Homo sapiens, CCRF-CEM, Example 11 Table 2, XTT assay following 72-h inhibition, read-out: In Vitro Cytotoxicities (IC50) CCRF-CEM/TAXOL
[16] = Homo sapiens, CCRF-CEM, Example 11 Table 2, XTT assay following 72-h inhibition, read-out: In Vitro Cytotoxicities (IC50) CCRF-CEM/VBL100
[17] = Homo sapiens, CCRF-CEM, Example 5 Table 1, 72 h inhibition, read-out: In vitro Cytotoxicities (IC50) CCRF-CEM(C)
[18] = Homo sapiens, CCRF-CEM, Example 5 Table 1, 72 h inhibition, read-out: In vitro Cytotoxicities (IC50) C/VM1
[19] = Microtubules formed in the presence of dEpoB is defined as 100%
[20] = Homo sapiens, CCRF-CEM, Example 5 Table 1, 72 h inhibition, read-out: In vitro Cytotoxicities (IC50) C/Taxol
[21] = Homo sapiens, CCRF-CEM, Example 5 Table 1, 72 h inhibition, read-out: In vitro Cytotoxicities (IC50) C/VBL100

CC1=CCC(C(C)=Cc2csc(C)n2)OC(=O)CC(O)C(C)(C)C(=O)C(C)C(O)C(C)CC=CC1 (stereo not shown) [[17]ddEpoB, 10,11-dehydro-13,14-[17]desoxyepothilone B]
IC50 [1, 7]: 0.04 µM | IC50 ([1]; Example 12, growth inhibition, read-out: activity, CCRF-CEM tumor cell lines): ~0.051 µM | IC50 [1, 8]: 0.04 µM | IC50 ([2]; Example 12, growth inhibition, read-out: activity, CCRF-CEM/VM1 resistant cell lines): ~55 nM | IC50 [2, 9]: 55 nM | % Tubulin Binding ([3]; Example 5 Table 1): 94% | IC50 ([4]; Example 12, growth inhibition, read-out: activity, CCRF-CEM/Taxol resistant cell lines): ~49 nM | IC50 [4, 10]: 53 nM | IC50 [5, 11]: 0.126 µM | IC50 ([5]; Example 12, growth inhibition, read-out: activity, CCRF-CEM/VBL100 resistant cell lines): ~0.137 µM | IC50 [5, 12]: 0.126 µM

CC1=C/C[C@@H](/C(C)=C/c2coc(C)n2)OC(=O)C[C@H](O)C(C)(C)C(=O)[C@H](C)[C@@H](O)[C@@H](C)C\C=C\1 [19-oxa epothilone 490]
IC50 ([1]; Homo sapiens, CCRF-CEM, Example 9 table, read-out: Cell Growth Inhibition (IC50) CCRF-CEM): 0.015 µM | IC50 ([4]; Homo sapiens, CCRF-CEM, Example 9 table, read-out: Cell Growth Inhibition (IC50) CCRF-CEM/taxol): 40 nM | IC50 ([5]; Homo sapiens, CCRF-CEM, Example 9 table, read-out: Cell Growth Inhibition (IC50) CCRF-CEM/VBL): 0.06 µM

C/C1=C/C[C@@H](/C(C)=C/c2csc(C)n2)OC(=O)C[C@H](O)C(C)(C)C(=O)[C@H](C)[C@@H](O)[C@@H](C)CC2OC(C)(C)OC12 (stereo partly shown) [10, 11-ketal-dEpoB]
activity in CCRF-CEM cell lines [1]: demonstrated activity | activity in CCRF-CEM cell lines resistant to Taxol [4]: demonstrated activity

10,11-dehydro-14,15-[18]desoxyepothilone B [[18]ddEpoB]
% Tubulin Binding ([3]; Example 5 Table 1): 51%

CC[C@]1(O)C[C@@H]2CN(CCc3c([nH]c4ccccc34)[C@@](C(=O)OC)(c3cc4c(cc3OC)N(C)[C@H]3[C@@](O)(C(=O)OC)[C@H](OC(C)=O)[C@]5(CC)C=CCN6CC[C@]43[C@@H]65)C2)C1 [vinblastine, reference compound]
IC50 [1, 13]: 0.0008 µM | IC50 [2, 14]: 1.4 nM | IC50 [4, 15]: 18 nM | IC50 [5, 16]: 0.122 µM

CC1=C/C[C@@H](/C(C)=C/c2csc(CO)n2)OC(=O)C[C@H](O)C(C)(C)C(=O)[C@H](C)[C@@H](O)[C@@H](C)C\C=C\1 [Compound 21-OH-Epo490]
activity in CCRF-CEM cell lines [1]: demonstrated activity | IC50 [1, 17]: 0.03 µM | IC50 [1, 13]: 0.03 µM | IC50 [2, 18]: 61 nM | IC50 [2, 14]: 61 nM | % Tubulin Binding ([3]; Example 5 Table 1): 77% | % Tubulin Binding [3, 19]: 77% | activity in CCRF-CEM cell lines resistant to Taxol [4]: demonstrated activity | IC50 [4, 20]: 51 nM | IC50 [4, 15]: 51 nM | IC50 [5, 21]: 0.202 µM | IC50 [5, 16]: 0.202 µM

C/C1=C/C[C@@H](/C(C)=C/c2csc(C)n2)OC(=O)C[C@H](O)C(C)(C)C(=O)[C@H](C)[C@@H](O)[C@@H](C)CC2CC12 (stereo partly shown) [15 (cyclopropyl)]
IC50 [1, 17]: 0.077 µM | % Tubulin Binding ([3]; Example 5 Table 1): 84% | IC50 [5, 21]: 0.141 µM

10,11-dehydro-12,13-desoxyepothilone B [Epo490]
IC50 [1, 7]: 0.02 µM | IC50 [1, 8]: 0.025 µM | IC50 [2, 9]: 35 nM | IC50 [4, 10]: 32 nM | IC50 [5, 11]: 0.068 µM | IC50 [5, 12]: 0.091 µM

C/C1=C/C[C@@H](/C(C)=C/c2csc(C)n2)OC(=O)C[C@H](O)C(C)(C)C(=O)[C@H](C)[C@@H](O)[C@@H](C)CCC1 [dEpoB, 12,13-desoxyepothilone B, reference compound]
IC50 ([1]; Homo sapiens, CCRF-CEM, 72 h, read-out: In Vitro Cytotoxicities (IC50) CCRF-CEM): 0.011 µM | IC50 ([1]; Homo sapiens, CCRF-CEM, 72 h, read-out: In vitro Cytotoxicities (IC50) CCRF-CEM): 0.011 µM | IC50 ([1]; Homo sapiens, CCRF-CEM, 72 h, read-out: In vitro Cytotoxicities (IC50) CCRF-CEM(C)): 0.011 µM | IC50 ([2]; Homo sapiens, CCRF-CEM, 72 h, read-out: In Vitro Cytotoxicities (IC50) CCRF-CEM/VMI): 16 nM | IC50 ([2]; Homo sapiens, CCRF-CEM, 72 h, read-out: In vitro Cytotoxicities (IC50) C/VM1): 16 nM | IC50 ([2]; Homo sapiens, CCRF-CEM, 72 h, read-out: In vitro Cytotoxicities (IC50) CCRF-CEM/VM1): 16 nM | % Tubulin Binding ([3]; Example 5 Table 1): 100% | % Tubulin Binding [3, 19]: 100% | IC50 ([4]; Homo sapiens, CCRF-CEM, 72 h, read-out: In Vitro Cytotoxicities (IC50) CCRF-CEM/TAXOL): 7 nM | IC50 ([4]; Homo sapiens, CCRF-CEM, 72 h, read-out: In vitro Cytotoxicities (IC50) C/Taxol): 7 nM | IC50 ([4]; Homo sapiens, CCRF-CEM, 72 h, read-out: In vitro Cytotoxicities (IC50) CCRF-CEM/Taxol): 7 nM | IC50 ([5]; Homo sapiens, CCRF-CEM, 72 h, read-out: In Vitro Cytotoxicities (IC50) CCRF-CEM/VBL100): 0.015 µM | IC50 ([5]; Homo sapiens, CCRF-CEM, 72 h, read-out: In vitro Cytotoxicities (IC50) C/VBL100): 0.015 µM | IC50 ([5]; Homo sapiens, CCRF-CEM, 72 h, read-out: In vitro Cytotoxicities (IC50) CCRF-CEM/VBL100): 0.015 µM

C/C1=C/C[C@@H](/C(C)=C/c2csc(C)n2)OC(=O)C[C@H](O)C(C)(C)C(=O)[C@H](C)[C@@H](O)[C@@H](C)C[C@@H](O)[C@@H]1O [12 (dihydroxy)]
IC50 [1, 17]: 1 µM | IC50 [2, 18]: 2350 nM | % Tubulin Binding ([3]; Example 5 Table 1): 31% | IC50 [4, 20]: 16800 nM | IC50 [5, 21]: 99 µM

CC(=O)O[C@H]1C(=O)[C@@]2(C)[C@H]([C@H](OC(=O)c3ccccc3)[C@]3(O)C[C@H](OC(=O)[C@H](O)[C@@H](NC(=O)c4ccccc4)c4ccccc4)C(C)=C1C3(C)C)[C@]1(OC(C)=O)CO[C@@H]1C[C@@H]2O [Taxol, paclitaxel, reference compound]
IC50 [1, 13]: 0.0021 µM | IC50 [2, 14]: 3 nM | IC50 [4, 15]: 81 nM | IC50 [5, 16]: 0.827 µM

C/C(=C\c1csc(C)n1)[C@@H]1C/C=C(/C(F)(F)F)C/C=C/C[C@H](C)[C@H](O)[C@@H](C)C(=O)C(C)(C)[C@@H](O)CC(=O)O1 [27-Tn-F-[17]ddEpoB (22), 10,11-dehydro-13,14-desoxy-27-trifluoro-[17]epothilone B]
stability in mouse blood plasma [6]: more stable | IC50 ([1]; Homo sapiens, CCRF-CEM, Example 6 table, XTT assay following 72 h inhibition, read-out: CCRF-CEM (IC50 (μM))): 0.068 µM | IC50 ([5]; Homo sapiens, CCRF-CEM, Example 6 table, XTT assay following 72 h inhibition, read-out: CCRF-CEM/VBL (IC50 (μM))): 0.191 µM

C/C1=C\[C@@H]2C[C@H](C)[C@H](O2)[C@@H](C)C(=O)C(C)(C)[C@@H](O)CC(=O)O[C@H](/C(C)=C/c2csc(C)n2)CC1O (stereo partly shown) [13 (THF macrocycle)]
IC50 [1, 17]: 0.761 µM | % Tubulin Binding ([3]; Example 5 Table 1): inactive | IC50 [4, 20]: 4240 nM | IC50 [5, 21]: 8.76 µM

C/C(=C\c1csc(C)n1)[C@@H]1C/C=C(/CF)CCC[C@H](C)[C@H](O)[C@@H](C)C(=O)C(C)(C)[C@@H](O)CC(=O)O1 [Compound 26F-EpoD]
activity in CCRF-CEM cell lines [1]: demonstrated activity | IC50 ([1]; Example 12, read-out: activity for CCRF-CEM cell lines): ~0.0015 µM | activity in CCRF-CEM cell lines resistant to Taxol [4]: demonstrated activity | IC50 ([4]; Example 12, read-out: activity for CCRF-CEM/Taxol resistant cell lines): ~11 nM
